SMILES strings stand for the structures.

The subject of assay [1] is transplastomic cell suspensions from the tobacco GFP-6 line. The assay is described as follows: Shoot/leafy biomass production from cell suspensions in temporary immersion bioreactor. The class given is cell-based, Nicotiana tabacum Petit Havana. As to conditions: 2-L temporary immersion bioreactor, MS media supplemented with 0.1 μM TDZ, after about six weeks. As for the experimental part:
Given that transplastomic gene expression seemed to be highest in leaf tissue we sought to develop a method for the rapid production of leaf tissue from callus/cell suspensions. […] In order to scale up the production capacity, transplastomic cell suspensions from the tobacco GFP-6 line were loaded into a 2-L bioreactor and temporally submerged in MS media supplemented with 0.1 μM TDZ. […] During the first 14 days, no growth could be detected and shoots only started to grow after this period. Possibly this lag period is related to the time needed for cells to redifferentiate from callus tissue to leafy tissue in tobacco in a similar manner to the observed switch between calli and meristematic tissues in Arabidopsis thaliana (Gordon et al, 2007).
Tobacco biomass was generated by placing about 7 grams of Nicotiana tabacum Petit Havana cell suspensions in a 2-L temporary immersion bioreactor (Ducos et al, 2007). Immersions were performed over a 40-day period with 1-L MS media supplemented with 0.1 μM Thidiazuron (TDZ, Sigma, UK) every three hours for 5 min. Additionally, the media contained 100 mg/L of spectinomycin to prevent contamination and to select for transplastomic cells. The TDZ (Thidiazuron) concentration in MS media was estimated to be optimal at 0.1 μM by researchers in Nestle, based on calli solid induction in Petri dishes (data not shown). […]

A further assay has as its system GFP-6 calli. Nature of the assay: Shoot induction from transplastomic calli on solid MS medium. To be noted: data not shown; for shoot formation from calli: GFP-6 calli grown on solid MS medium with TDZ, shoots after 6 weeks. The class given is cell-based, Nicotiana tabacum Petit Havana.

Turning to `O=C(Nc1ccccc1)Nc1cnns1` [Thidiazuron], the “shoot formation from cell suspensions” value in assay [1] was “a large number of shoots were produced”. Besides, the entries for the “shoot formation from calli” value in the assay with GFP-6 calli and in the assay with GFP-6 calli (listed as thidiazuron) were “able to induce shoot formation” and “induced the formation of shoots from calli”, respectively. Besides, the “optimal TDZ concentration in MS media” value with GFP-6 calli (based on calli solid induction in Petri dishes, estimated by researchers in Nestle) was 0.1 µM.

Values taken from patent US20170002373A1, “METHOD OF PRODUCING LEAFY BIOMASS” (Imperial Innovations Limited, priority 2009, published 2017).
